Source: US4241063A, “Purine derivatives and their use as bronchodilators” (Bristol-Myers Company, priority 1979, dated 1980)
In brackets after ≈: the same amount, converted by molar mass. Where two headings read alike, the source gives them in different places.

Tests used:
[1] = system: Arterial blood pressure (ABP); experiment: In vivo hypotensive activity: arterial blood pressure (ABP) in anesthetized guinea pig
Procedure: (§1) The trachea of anesthetized guinea pig was cannulated and the ITP recorded on a polygraph under artificial ventilation. Arterial blood pressure (ABP; reflecting hypotensive activity) was also measured during the experiment. Either intravenous or intraduodenal routes of administration are used. […] The ratio of hypotensive ED20 /bronchodilating ED50 reflects an assessment of the separation of desirable bronchodilator activity from undesirable cardiovascular (hypotensive) effect in the compounds.

[2] = system: intratracheal pressure (ITP) in the guinea pig; experiment: In vivo bronchodilator activity: decrease in intratracheal pressure (ITP) in anesthetized guinea pig; details: for ED50: Cavia porcellus, read-out: ITP ED50 (dose resulting in a 50% decrease in intratracheal pressure)
Procedure: as §1

[3] = system: Tracheal chains of guinea pig; experiment: In vitro bronchodilator activity (guinea pig tracheal chain relaxation, Magnus method); assay type: cell-based; details: Cavia porcellus, read-out: EC50 (concentration producing a relaxation which is 50% of the maximum response to 0.1 mcg./ml. of isoproterenol), relative to maximum response to 0.1 mcg./ml. isoproterenol
Procedure: Tracheal chains of guinea pig were prepared by the method of A. Akcasu, Arch. Int. Pharmacodyn. […] The response to each test compound was recorded by the Magnus method and expressed as a percentage of the maximum response obtained with 0.1 mcg./ml. of isoproterenol prior to each experiment.

| EC50 [3] [µg/mL] | Structure (SMILES) | ABP ED20 (dose which reduces arterial blood pressure by 20%) ([1]; intravenous) [mg/kg] | ED50 ([2]; intravenous) [mg/kg] | ED50 ([2]; intraduodenal) [mg/kg] | Ratio ABP/ITP (hypotensive ED20/bronchodilating ED50) ([2]; intraduodenal) | Ratio ABP/ITP (hypotensive ED20/bronchodilating ED50) ([2]; intravenous) | ABP ED20 (dose which reduces arterial blood pressure by 20%) ([1]; intraduodenal) [mg/kg] |
| --- | --- | --- | --- | --- | --- | --- | --- |
|  | Cn1c(=O)c2[nH]cnc2n(C)c1=O [Aminophylline, reference compound] | 1.4 |  |  |  |  |  |
| 0.45 (≈ 1.77 µM) | Nc1nc(Cl)nc2c1ncn2C1CCCCO1 (centres unmarked) [Example 1, 2-Chloro-9-(tetrahydropyran-2-yl)-9H-adenine] | > 1 | 0.23 |  |  |  |  |
| > 3 | COc1nc(N)c2ncn(C3CCCCO3)c2n1 (centres unmarked) [Example 2, 2-Methoxy-9-(tetrahydropyran-2-yl)-9H-adenine] | > 1 | 2.2 |  |  |  |  |
| 0.17 (≈ 0.613 µM) | CCCOc1nc(N)c2ncn(C3CCCCO3)c2n1 (centres unmarked) [Example 3, 2-n-Propoxy-9-(tetrahydropyran-2-yl)-9H-adenine] | 1.9 | 0.26 | 1.4 | 9.6 | 7.3 | 13.5 |
